In patent US10577336B2, “Morpholine and 1,4-oxazepane amides as somatostatin receptor subtype 4 (SSTR4) agonists” (Boehringer Ingelheim International GmbH, priority 2014, dated 2020):

Tests used:
[1] = target: human Somatostatin 4 receptor (hSSTR4) (Homo sapiens (Human), UniProt P31391); assay: cAMP assay with human somatostatin 4 receptor (inhibition of forskolin-stimulated cAMP, hSSTR4 expressing H4 cells); type: cell-based; conditions: read-out: SSTR4 agonism EC50
[2] = in vitro; conditions: human, microsomes, pH 7.6
[3] = Metabolic stability in pooled human liver microsomes (half-life); conditions: 37° C., 1 μM test compound

human Somatostatin 4 receptor (hSSTR4), sequence (P31391 whole entry): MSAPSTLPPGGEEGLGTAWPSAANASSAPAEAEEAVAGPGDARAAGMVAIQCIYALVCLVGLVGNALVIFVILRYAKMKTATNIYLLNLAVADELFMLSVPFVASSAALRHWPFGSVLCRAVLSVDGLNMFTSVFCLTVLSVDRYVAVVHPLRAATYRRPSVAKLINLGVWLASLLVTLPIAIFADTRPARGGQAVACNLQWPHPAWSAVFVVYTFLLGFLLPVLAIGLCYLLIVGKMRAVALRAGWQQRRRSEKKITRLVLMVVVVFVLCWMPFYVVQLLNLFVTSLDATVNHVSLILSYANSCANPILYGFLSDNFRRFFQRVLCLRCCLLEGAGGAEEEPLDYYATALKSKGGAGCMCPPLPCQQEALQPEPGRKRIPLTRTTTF

Row | Compound | EC50 [1] | half-life at 1 μM [2] | Half-life t1/2 [3]
1 | COc1cccn2c(C(C)(C)NC(=O)[C@@H]3CNCCO3)ncc12 [Example 99] | 43.4 nM | – | –
2 | CC(C)(NC(=O)C1CNCCOC1)c1noc2c(Cl)cccc12 (single isomer, unassigned) [Example 73] | 8.4 nM | > 130 min | –
3 | Cn1nc(C(C)(C)NC(=O)C2CNCCOC2)c2cccc(F)c21 (racemic) [Example 76] | 10 nM | – | –
4 | Cn1nc(C(C)(C)NC(=O)[C@@H]2CNCCO2)c2cccc(Cl)c21 [Example 79] | – | – | 100 min
5 | CC(C)(NC(=O)[C@H]1CNCCO1)c1ccnc2ccccc12 [Example 8] | 258 nM | – | –
6 | CC(C)(NC(=O)C1CNCCOC1)c1noc2c(Cl)cccc12 (racemic) [Example 72] | 17.3 nM | – | –
7 | Cc1cccn2c(C3(NC(=O)C4CNCCOC4)CC3)ncc12 (stereo not shown) [Example 5] | 20.4 nM | – | –
8 | Cc1nc(C(C)(C)NC(=O)[C@@H]2CNCCO2)n2cccc(F)c12 [Example 98] | 85.3 nM | – | –
9 | Cc1cccc2c(C(C)(C)NC(=O)[C@@H]3CNCCO3)nn(C)c12 [Example 83] | – | – | >130 min
